Test results from patent publication US11866430B2, “Naphthyridinone compounds useful as T cell activators” (priority 2018, dated 2024).
Where two headings read alike, the source gives them in different places.

What was measured:
[1] = molecular target: T1, human DGKζ (Homo sapiens (Human), UniProt Q13574); assay: DGKζ LIPGLO assay (extruded liposome substrate); assay type: biochemical; details: extruded liposome substrate; read-out: DGKζ LIPGLO IC50
Description: (§1) The DGKα and DGKζ reactions were performed using either extruded liposome (DGKα and DGKζ LIPGLO assays) or detergent/lipid micelle substrate (DGKα and DGKζ assays). The reactions were carried out in 50 mM MOPS pH 7.5, 100 mM NaCl, 10 mM MgCl2, 1 μM CaCl2, and 1 mM DTT (assay buffer). The reactions using a detergent/lipid micelle substrate also contained 50 mM octyl B-D-glucopyranoside.
(§2) A 5 mL enzyme/substrate solution at 2× final reaction concentration was prepared by combining 2.5 mL 4× enzyme solution (20 nM DGKα or DGKζ (prepared as described below) in assay buffer) and 2.5 mL of either 4× liposome or 4× detergent/lipid micelle solution (compositions described below) and incubated at room temperature for 10 minutes. Next, 1 μL 2× enzyme/substrate solution was added to wells containing the test compound and reactions were initiated with the addition of 1 μL 300 uM ATP. The reactions were allowed to proceed for 1 hr, after which 2 μL Glo Reagent (Promega V9101) was added and incubated for 40 minutes. Next, 4 μL Kinase Detection Reagent was added and incubated for 30 minutes. Luminescence was recorded using an EnVision microplate reader. […] The compounds were evaluated at 11 concentrations to determine IC50.
(§3) The PC, DAG, and PS were dissolved in chloroform, combined, and dried in vacuo to a thin film. The lipids were hydrated to 20 mM in 50 mM MOPS pH 7.5, 100 mM NaCl, 5 mM MgCl2, and were freeze-thawed five times. The lipid suspension was extruded through a 100 nm polycarbonate filter eleven times. […] The liposome preparation was stored at 4° C. for as long as four weeks.
Baculovirus amplification was achieved using infected Sf9 cells at 1:1500 virus/cell ratios, and grown for 65 hours at 27° C. post-transfection.
(§4) The expression scale up for each protein was carried out in the Cellbag 50 L WAVE-Bioreactor System 20/50 from GE Healthcare Bioscience. 12 L of 2×10^6 cells/mL Sf9 cells (Expression System, Davis, Calif.) grown in ESF921 insect medium (Expression System) were infected with virus stock at 1:200 virus/cell ratios, and grown for 66-68 hours at 27° C. post-infection. The infected cell culture was harvested by centrifugation at 2000 rpm for 20 min 4° C. in a SORVALL® RC12BP centrifuge. The cell pellets were stored at −70° C. until purification.
The cells were lysed using nitrogen cavitation method with a nitrogen bomb (Parr Instruments), and the lysates were clarified by centrifugation. […] The three steps column chromatography included nickel affinity resin capture (i.e. HisTrap FF crude, GE Healthcare), followed by size exclusion chromatography (i.e. HiLoad 26/600 Superdex 200 prep grade, GE Healthcare for DGK-alpha, and HiPrep 26/600 Sephacryl S 300_HR, GE Healthcare for DGK-zeta). The third step was ion exchange chromatography, and differed for the two isoforms. DGKα was polished using Q-Sepharose anion exchange chromatography (GE Healthcare). DGKζ was polished using SP Sepharose cation exchange chromatography (GE Healthcare). The proteins were delivered at concentrations of ≥2 mg/mL. The formulation buffers were identical for both proteins: 50 mM Hepes, pH 7.2, 500 mM NaCl, 10% v/v glycerol, 1 mM TCEP, and 0.5 mM EDTA.

[2] = molecular target: T2, human DGKα (Homo sapiens (Human), UniProt P23743); assay: DGKα LIPGLO assay (extruded liposome substrate); assay type: biochemical
Description: as §1, with “B-D-glucopyranoside. […] The lipid substrate concentrations were […], 0.25 mM DAG, and 2.75 mM PC for the extruded liposome reactions.” for “B-D-glucopyranoside.”
as §2, with “The compound inhibition studies were carried out as follows: 50 nL droplets of each test compound (top concentration 10 mM with 11 point, 3-fold dilution series for each compound) solubilized in DMSO were transferred to wells of a white 1536 well plate (Corning 3725). A 5” for “A 5”
as §3
Human DGK-alpha-TVMV-His-pFBgate and human DCK-zeta-transcript variant-2-TVMV-His-pFBgate baculovirus samples were generated using the Bac-to-Bac baculovirus expression system (Invitrogen) according to the manufacturer's protocol. The DNA used for expression of DGK-alpha and DGK-zeta have SEQ ID NOs: 1 and 3, respectively. Baculovirus amplification was achieved using infected Sf9 cells at 1:1500 virus/cell ratios, and grown for 65 hours at 27° C. post-transfection.
as §4
Full length human DGKα and DGKζ, each expressed containing a TVMV-cleavable C-terminal Hexa-His tag sequence (SEQ ID NOs: 2 and 4, respectively) and produced as described above, were purified from Sf) baculovirus-infected insect cell paste. The cells were lysed using nitrogen cavitation method with a nitrogen bomb (Parr Instruments), and the lysates were clarified by centrifugation. […] The three steps column chromatography included nickel affinity resin capture (i.e. HisTrap FF crude, GE Healthcare), followed by size exclusion chromatography (i.e. HiLoad 26/600 Superdex 200 prep grade, GE Healthcare for DGK-alpha, and HiPrep 26/600 Sephacryl S 300_HR, GE Healthcare for DGK-zeta). The third step was ion exchange chromatography, and differed for the two isoforms.

[3] = molecular target: T1, human DGKζ; assay: DGKζ assay (detergent/lipid micelle substrate); assay type: biochemical; details: detergent/lipid micelle substrate; read-out: DGKζ IC50
Summary of the method: (§5)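 Enzymes were baculovirus/Sf9 full-length human DGKα or DGKζ with His tag. The substrate was PS/DAG in octyl glucoside micelles, in MOPS pH 7.5 buffer with NaCl, MgCl2, CaCl2 and DTT.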

[4] = molecular target: T2, human DGKα; assay: biochemical; details: detergent/lipid micelle substrate; read-out: DGKα IC50
Summary of the method: as §5

[5] = test system: pre-activated CD4 T cells and Raji cells; assay: Raji CD4 T Cell IL2 Assay; assay type: cell-based

T1 sequence (Q13574 other isoform, or with tags, fused parts or gaps): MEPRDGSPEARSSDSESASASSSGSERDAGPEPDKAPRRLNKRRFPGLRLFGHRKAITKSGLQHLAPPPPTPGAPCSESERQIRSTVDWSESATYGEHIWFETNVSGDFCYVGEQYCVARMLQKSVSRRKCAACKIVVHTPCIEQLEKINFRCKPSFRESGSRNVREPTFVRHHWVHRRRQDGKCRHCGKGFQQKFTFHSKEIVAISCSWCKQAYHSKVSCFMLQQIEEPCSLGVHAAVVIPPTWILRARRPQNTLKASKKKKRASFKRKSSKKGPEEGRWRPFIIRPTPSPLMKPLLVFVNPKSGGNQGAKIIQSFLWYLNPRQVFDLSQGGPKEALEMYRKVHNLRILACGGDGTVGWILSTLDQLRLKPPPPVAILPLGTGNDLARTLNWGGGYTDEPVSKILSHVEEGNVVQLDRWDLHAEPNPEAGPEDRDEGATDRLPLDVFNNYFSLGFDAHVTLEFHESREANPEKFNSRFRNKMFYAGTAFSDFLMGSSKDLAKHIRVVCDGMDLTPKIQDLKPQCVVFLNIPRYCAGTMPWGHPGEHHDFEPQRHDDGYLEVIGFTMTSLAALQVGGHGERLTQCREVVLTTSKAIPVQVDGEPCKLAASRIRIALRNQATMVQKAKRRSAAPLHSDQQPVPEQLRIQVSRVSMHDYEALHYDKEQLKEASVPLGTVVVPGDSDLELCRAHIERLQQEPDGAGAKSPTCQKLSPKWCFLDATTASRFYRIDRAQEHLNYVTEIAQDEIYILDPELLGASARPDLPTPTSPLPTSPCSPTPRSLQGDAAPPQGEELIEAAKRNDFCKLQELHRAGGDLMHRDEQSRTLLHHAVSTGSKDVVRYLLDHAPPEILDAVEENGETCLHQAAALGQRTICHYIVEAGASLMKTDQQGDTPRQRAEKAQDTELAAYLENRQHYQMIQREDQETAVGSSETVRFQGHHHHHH
T2 sequence (P23743 other isoform, or with tags, fused parts or gaps): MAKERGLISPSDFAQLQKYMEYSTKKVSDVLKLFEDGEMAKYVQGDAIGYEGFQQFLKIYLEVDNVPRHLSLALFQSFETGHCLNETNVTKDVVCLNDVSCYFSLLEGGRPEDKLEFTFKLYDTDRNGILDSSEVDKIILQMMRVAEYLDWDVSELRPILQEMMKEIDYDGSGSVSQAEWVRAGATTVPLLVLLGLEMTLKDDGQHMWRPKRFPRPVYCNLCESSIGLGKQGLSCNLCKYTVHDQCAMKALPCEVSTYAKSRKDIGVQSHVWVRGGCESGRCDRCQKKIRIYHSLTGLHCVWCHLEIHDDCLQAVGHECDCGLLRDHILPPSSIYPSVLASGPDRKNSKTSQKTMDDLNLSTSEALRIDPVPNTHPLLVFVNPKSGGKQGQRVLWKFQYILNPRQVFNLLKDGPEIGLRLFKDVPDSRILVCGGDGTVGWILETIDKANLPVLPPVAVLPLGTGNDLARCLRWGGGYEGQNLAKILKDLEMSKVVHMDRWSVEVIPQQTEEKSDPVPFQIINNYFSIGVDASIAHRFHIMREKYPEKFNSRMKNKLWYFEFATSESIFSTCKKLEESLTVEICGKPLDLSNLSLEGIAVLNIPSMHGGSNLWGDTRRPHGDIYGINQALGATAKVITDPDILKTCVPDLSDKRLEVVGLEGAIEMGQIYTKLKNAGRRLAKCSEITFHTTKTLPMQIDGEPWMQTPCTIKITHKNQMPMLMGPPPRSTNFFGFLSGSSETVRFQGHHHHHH

Compound	IC50 [1]	IC50 [2]	IC50 [3]	IC50 [4]	IC50 ([5]; Homo sapiens, Raji)	IC50 [5]
COc1cccnc1C(c1ccc(F)cc1)N1CCN(c2c(C#N)c(=O)n(C)c3ccc(C)nc23)CC1 (stereo not drawn) [Example 255, 4-{4-[(4-fluorophenyl)(3-methoxypyridin-2-yl)methyl]piperazin-1-yl}-1,6-dimethyl-2-oxo-1,2-dihydro-1,5-naphthyridine-3-carbonitrile]	21 µM	1.4 µM				
Cc1ccc2c(n1)c(N1CCN(C(c3ccc(F)cc3)C3CC3)CC1)c(C#N)c(=O)n2C (stereo not drawn) [Example 250, 4-{4-[cyclopropyl(4-fluorophenyl)methyl]piperazin-1-yl}-1,6-dimethyl-2-oxo-1,2-dihydro-1,5-naphthyridine-3-carbonitrile]	> 240 µM	5.1 µM				
Cn1c(=O)c(C#N)c(N2CCN(Cc3ccc(OC(F)(F)F)cc3O)CC2)c2nc(Cl)ccc21 [Example 381, 6-chloro-4-(4-{[2-hydroxy-4-(trifluoromethoxy)phenyl]methyl}piperazin-1-yl)-1-methyl-2-oxo-1,2-dihydro-1,5-naphthyridine-3-carbonitrile]	27 µM		> 240 µM			
COc1ncccc1C(c1ccc(F)cc1)N1CCN(c2c(C#N)c(=O)n(C)c3ccc(C)nc23)CC1 (stereo not drawn) [Example 254, 4-{4-[(4-fluorophenyl)(2-methoxypyridin-3-yl)methyl]piperazin-1-yl}-1,6-dimethyl-2-oxo-1,2-dihydro-1,5-naphthyridine-3-carbonitrile]	16 µM	1.7 µM				
Cn1c(=O)c(C#N)c(N2CCN(Cc3ccc(Cl)cc3O)CC2)c2nc(Br)ccc21 [Example 266, 6-bromo-4-{4-[(4-chloro-2-hydroxyphenyl)methyl]piperazin-1-yl}-1-methyl-2-oxo-1,2-dihydro-1,5-naphthyridine-3-carbonitrile]	11 µM		> 240 µM	0.027 µM	0.041 µM	
C#CCn1c(=O)c([N+](=O)[O-])c(N2CCN(C(c3ccc(F)cc3)c3ccccc3OC)CC2)c2nc(C#N)ccc21 (single isomer, unassigned) [Example 130, 8-(4-((4-fluorophenyl)(2-methoxyphenyl)methyl)piperazin-1-yl)-7-nitro-6-oxo-5-(prop-2-yn-1-yl)-5,6-dihydro-1,5-naphthyridine-2-carbonitrile]	0.31 µM		1.9 µM	30 µM	0.019 µM	
Cn1c(=O)c(C#N)c(N2CCN(C(c3ccc(F)cc3)c3ccc(F)cc3)CC2)c2ncccc21 [Example 347, 4-{4-[bis(4-fluorophenyl)methyl]piperazin-1-yl}-1-methyl-2-oxo-1,2-dihydro-1,5-naphthyridine-3-carbonitrile]		2.6 µM			1.2 µM	
C#CCn1c(=O)c(C#N)c(N2CCN(Cc3ccccc3C(F)F)CC2)c2nc(Br)ccc21 [Example 64, 6-bromo-4-(4-(2-(difluoromethyl)benzyl)piperazin-1-yl)-2-oxo-1-(prop-2-yn-1-yl)-1,2-dihydro-1,5-naphthyridine-3-carbonitrile]			14 µM	2.7 µM	55 µM	
COCCn1c(=O)c(C#N)c(N2CCN(C(c3ccc(F)cc3)c3ccc(F)cc3OC)CC2)c2nc(Br)ccc21 (single isomer, unassigned) [Example 116, 6-bromo-4-(4-((4-fluoro-2-methoxyphenyl)(4-fluorophenyl)methyl)piperazin-1-yl)-1-(2-methoxyethyl)-2-oxo-1,2-dihydro-1,5-naphthyridine-3-carbonitrile]			> 240 µM	> 240 µM		0.17 µM
Cc1cc(CN2CCN(c3c(C#N)c(=O)n(C)c4ccc(Cl)nc34)CC2)ccc1O [Example 356, 6-chloro-4-{4-[(4-hydroxy-3-methylphenyl)methyl]piperazin-1-yl}-1-methyl-2-oxo-1,2-dihydro-1,5-naphthyridine-3-carbonitrile]			> 240 µM	0.3 µM	3 µM	
Cn1c(=O)c(C#N)c(N2CCN(Cc3cccc(F)c3O)CC2)c2nc(Cl)ccc21 [Example 306, 6-chloro-4-{4-[(3-fluoro-2-hydroxyphenyl)methyl]piperazin-1-yl}-1-methyl-2-oxo-1,2-dihydro-1,5-naphthyridine-3-carbonitrile]			> 240 µM	0.2 µM	0.21 µM	
Cn1c(=O)c(C#N)c(N2CCN(Cc3cc(OC(F)(F)F)ccc3O)CC2)c2nc(Cl)ccc21 [Example 369, 6-chloro-4-(4-{[2-hydroxy-5-(trifluoromethoxy)phenyl]methyl}piperazin-1-yl)-1-methyl-2-oxo-1,2-dihydro-1,5-naphthyridine-3-carbonitrile]			> 240 µM	0.16 µM	> 100 µM	
COCCn1c(=O)c([N+](=O)[O-])c(N2CCN(C(c3ccc(F)cc3)c3ccc(F)cc3)CC2)c2nc(C#N)ccc21 [Example 147, 8-(4-(bis(4-fluorophenyl)methyl)piperazin-yl)-5-(2-methoxyethyl)-7-nitro-6-oxo-5,6-dihydro-1,5-naphthyridine-2-carbonitrile]			3.6 µM	76 µM	0.3 µM	
Cn1c(=O)c(C#N)c(N2CCN(Cc3cccc4nc[nH]c34)CC2)c2nc(Br)ccc21 [Example 360]			> 240 µM	48 µM	9.6 µM	
